ChEMBL document CHEMBL1268906, “Discovery of a potent and selective Bcl-2 inhibitor using SAR by NMR” (Bioorg Med Chem Lett, 2010)

Columns and labels:
[1] = target: T1, Apoptosis regulator Bcl-2 (Homo sapiens, UniProt P10415); assay: Inhibition of Bcl-2 by fluorescence polarization assay
[2] = target: T1, Apoptosis regulator Bcl-2; assay: Binding affinity to Bcl-2 by NMR titration assay in presence of 500 uM 1,1-bis(4-chlorophenyl)-3-(dimethylamino)propan-1-ol
[3] = target: T1, Apoptosis regulator Bcl-2; assay: Binding affinity to Bcl-2 by NMR titration assay
Bcl-2-like protein 1 = Bcl-2-like protein 1 (Homo sapiens, UniProt Q07817); assay: Binding affinity to Bcl-XL by NMR titration assay
Bcl-2-like protein 1, sequence (Q07817 whole entry): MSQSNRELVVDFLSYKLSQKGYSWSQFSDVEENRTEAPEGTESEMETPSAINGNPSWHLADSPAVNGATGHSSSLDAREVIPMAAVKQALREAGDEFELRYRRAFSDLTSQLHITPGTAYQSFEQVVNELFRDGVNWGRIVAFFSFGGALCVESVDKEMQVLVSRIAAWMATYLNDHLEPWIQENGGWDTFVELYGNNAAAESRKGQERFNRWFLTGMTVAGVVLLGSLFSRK

[4] = Selectivity ratio of Kd for Bcl-XL to Kd for Bcl-2

T1 sequence (P10415 whole entry): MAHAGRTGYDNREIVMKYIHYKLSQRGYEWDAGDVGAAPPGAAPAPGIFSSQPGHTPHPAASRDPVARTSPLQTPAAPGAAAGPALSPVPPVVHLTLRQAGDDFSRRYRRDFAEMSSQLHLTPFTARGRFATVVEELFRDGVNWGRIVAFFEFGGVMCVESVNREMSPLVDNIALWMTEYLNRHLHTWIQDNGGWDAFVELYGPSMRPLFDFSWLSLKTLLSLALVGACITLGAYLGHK

Question: Which Ki [1] does the source give for `CN(C)CCCC(O)(c1ccccc1)c1cccc(OCc2cccc(-c3ccc(C(=O)O)cc3)c2)c1` (stereo not drawn) here?
Answer: Its Ki is 20 µM.

Question: For `CN(C)CCCC(O)(c1ccccc1)c1cccc(OCCc2cccc(-c3ccc(C(=O)O)cc3)c2)c1` (stereo not drawn), which Ki [1] is on record?
Answer: Its Ki is 5 µM.

Question: Which Ki [1] does the source give for `CC(O)(c1ccc(Cl)cc1)c1ccc(Cl)c(CCOc2ccc(-c3ccc(C(=O)O)cc3)cc2)c1` (stereo not drawn) here?
Answer: Its Ki is 0.46 µM.

Question: Which Ki [1] does the source give for `CN(C)CCCC(O)(c1ccccc1)c1cccc(CCOc2ccc(-c3ccc(C(=O)O)cc3)cc2)c1` (stereo not drawn) here?
Answer: The Ki was 3.4 µM.

Question: For `CN(C)CCCC(O)(c1ccccc1)c1ccc(OCCc2ccc(-c3ccc(C(=O)O)cc3)cc2)cc1` (stereo not drawn), which Ki [1] is on record?
Answer: Its Ki is 12 µM.

Question: For `CCc1ccc(-c2ccc(C(=O)O)cc2)cc1`, which Kd [2] is on record?
Answer: Its Kd is > 1000 µM.

Question: And the Kd [3]?
Answer: The Kd was 300 µM.

Question: For `CN(C)CCCC(O)(c1ccccc1)c1ccc(OCc2cccc(-c3ccc(C(=O)O)cc3)c2)cc1` (stereo not drawn), which Ki [1] is on record?
Answer: The Ki was 5.8 µM.

Question: Which Kd [2] does the source give for `CCc1cccc(-c2ccc(C(=O)O)cc2)c1` here?
Answer: Its Kd is 20 µM.

Question: What about the Kd [3] of the same molecule?
Answer: Its Kd is 100 µM.

Question: What does the source list for `CN(C)CCCC(O)(c1ccccc1)c1ccccc1`?
Answer: Kd (Bcl-2-like protein 1): 5000 µM; Kd [3]: 200 µM

Question: With `CC(C)(C)c1ccc(C(O)(CCN2CCCC2)c2ccc(Cl)c(CCOc3ccc(-c4ccc(C(=O)O)cc4)cc3)c2)cc1` (stereo not drawn) as the molecule, how does the Selectivity ratio [4] read?
Answer: Its Selectivity ratio is 1000.

Question: And the Ki [1]?
Answer: Its Ki is 0.04 µM.

Question: With `NC[C@](O)(c1ccccc1)c1ccc(F)cc1Cl` as the molecule, how does the Kd [3] read?
Answer: Its Kd is 250 µM.

Question: For `CN(C)CCCC(O)(c1ccccc1)c1ccc(OCCOc2ccc(-c3ccc(C(=O)O)cc3)cc2)cc1` (stereo not drawn), which Ki [1] is on record?
Answer: The Ki was > 1 µM.

Question: With `O=C(O)c1ccc(-c2ccc(OCCc3cc(C(O)(CCN4CCOCC4)c4ccc(Br)cc4)ccc3Cl)cc2)cc1` (stereo not drawn) as the molecule, how does the Ki [1] read?
Answer: Its Ki is 0.2 µM.

Question: Which Selectivity ratio [4] does the source give for `CN(C)CCCC(O)(c1ccc(Cl)cc1)c1ccc(Cl)cc1` here?
Answer: Its Selectivity ratio is 20.

Question: What about the Kd (Bcl-2-like protein 1) of the same molecule?
Answer: The Kd was 450 µM.

Question: What about the Kd [3] of the same molecule?
Answer: The Kd was 20 µM.

Question: Which Ki [1] does the source give for `CN(C)CCCC(O)(c1ccccc1)c1cccc(OCCc2ccc(-c3ccc(C(=O)O)cc3)cc2)c1` (stereo not drawn) here?
Answer: The Ki was 4.6 µM.

Question: With `CN(C)CCCC(O)(c1ccccc1)c1ccc(OCCc2cccc(-c3ccc(C(=O)O)cc3)c2)cc1` (stereo not drawn) as the molecule, how does the Ki [1] read?
Answer: The Ki was 8 µM.

Question: For `CN(C)CCC[C@@](O)(c1ccccc1)c1ccc(Cl)cc1`, which Kd (Bcl-2-like protein 1) is on record?
Answer: The Kd was 500 µM.

Question: And the Kd [3]?
Answer: Its Kd is 80 µM.

Question: For `CN(C)CCCC(O)(c1ccccc1)c1cccc(OCc2ccc(-c3ccc(C(=O)O)cc3)cc2)c1` (stereo not drawn), which Ki [1] is on record?
Answer: The Ki was 5.2 µM.

Question: For `CN(C)CCCC(O)(c1ccccc1)c1cccc(OCCOc2ccc(-c3ccc(C(=O)O)cc3)cc2)c1` (stereo not drawn), which Ki [1] is on record?
Answer: Its Ki is > 1 µM.

Question: Which results are given for `O=C(O)c1ccc(-c2ccc(F)cc2)cc1`?
Answer: Kd [2]: 430 µM; Kd [3]: 400 µM

Question: For `CC(C)(C)c1ccc(C(O)(CCN2CCOCC2)c2ccc(Cl)c(CCOc3ccc(-c4ccc(C(=O)O)cc4)cc3)c2)cc1` (stereo not drawn), which Ki [1] is on record?
Answer: Its Ki is 0.11 µM.

Question: Which Ki [1] does the source give for `CN(C)CCCC(O)(c1ccccc1)c1ccc(OCc2ccc(-c3ccc(C(=O)O)cc3)cc2)cc1` (stereo not drawn) here?
Answer: The Ki was 83 µM.

Question: For `CN1CCN(C(c2ccccc2)c2ccc(Cl)cc2)CC1` (stereo not drawn) [CHLORCYCLIZINE], which Kd (Bcl-2-like protein 1) is on record?
Answer: Its Kd is 700 µM.

Question: And the Kd [3]?
Answer: The Kd was 60 µM.

Question: For `O=C(O)c1ccc(-c2ccc(OCCc3cc(C(O)(CCN4CCOCC4)c4ccc(Cl)cc4)ccc3Cl)cc2)cc1` (stereo not drawn), which Ki [1] is on record?
Answer: The Ki was 0.22 µM.
